From PubChem BioAssay AID256 (DTP/NCI, 2004)
Where “and” joins values, the source holds several entries; their conditions need not be identical. Identical values can stand only once. Toxic doses and inconclusive results are not listed.

System: CD2F1 mice, L1210 leukemia ip, survival T/C
Assay: NCI In Vivo Anticancer Drug Screen. Data for tumor model L1210 Leukemia (intraperitoneal) in CD2F1 (CDF1) mice
Conditions: endpoint: mean survival time, higher = longer survival
Method in brief: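 Ratio T/C, where T is the treated-group value and C the vehicle-dosed control value, from mice implanted with a transplantable tumor.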

NC(CSC(c1ccccc1)(c1ccccc1)c1ccccc1)C(=O)O (stereo not given)
T/C (dose: 0.48 mg/kg/injection, schedule: Q03HX024 (oral), vehicle: saline): 103 % of control | T/C (dose: 0.94 mg/kg/injection, schedule: Q03HX024 (oral), vehicle: saline): 105 % of control | T/C (dose: 1.88 mg/kg/injection, schedule: Q03HX008 (oral), vehicle: saline): 109 % of control | T/C (dose: 1.88 mg/kg/injection, schedule: Q03HX024 (oral), vehicle: saline): 109 % of control | T/C (dose: 3.9 mg/kg/injection, schedule: Q04DX003 (ip), vehicle: water): 102 % of control | T/C (dose: 5.0 mg/kg/injection, schedule: Q03HX024 (ip), vehicle: water): 122 % of control and 106 % of control | T/C (dose: 5.9 mg/kg/injection, schedule: Q04DX003 (ip), vehicle: water): 102 % of control | T/C (dose: 6.25 mg/kg/injection, schedule: Q01DX009 (sc), vehicle: saline): 101 % of control | T/C (dose: 8.8 mg/kg/injection, schedule: Q04DX003 (ip), vehicle: water): 103 % of control | T/C (dose: 10.0 mg/kg/injection, schedule: Q01DX009 (ip), vehicle: water): 112 % of control | T/C (dose: 10.0 mg/kg/injection, schedule: Q03HX008 (ip), vehicle: water): 120 % of control | T/C (dose: 10.0 mg/kg/injection, schedule: Q03HX016 (ip), vehicle: water): 114 % of control | T/C (dose: 10.0 mg/kg/injection, schedule: Q03HX024 (ip), vehicle: clinical formulation): 103 % of control | T/C (dose: 10.0 mg/kg/injection, schedule: Q03HX024 (ip), vehicle: saline): 112 % of control | T/C (dose: 10.0 mg/kg/injection, schedule: Q03HX024 (ip), vehicle: water): 151 % of control | T/C (dose: 12.5 mg/kg/injection, schedule: Q01DX009 (sc), vehicle: saline): 107 % of control | T/C (dose: 13.2 mg/kg/injection, schedule: Q04DX003 (ip), vehicle: water): 123 % of control | T/C (dose: 15.0 mg/kg/injection, schedule: Q01DX005 (oral), vehicle: saline): 98 % of control | T/C (dose: 15.0 mg/kg/injection, schedule: Q01DX009 (oral), vehicle: saline): 116 % of control | T/C (dose: 15.0 mg/kg/injection, schedule: Q03HX008 (oral), vehicle: saline): 155 % of control | T/C (dose: 15.0 mg/kg/injection, schedule: Q03HX024 (oral), vehicle: saline): 115 % of control | T/C (dose: 20.0 mg/kg/injection, schedule: Q01DX009 (sc), vehicle: water): 123 % of control | T/C (dose: 20.0 mg/kg/injection, schedule: Q03HX008 (ip), vehicle: water): 123 % of control | T/C (dose: 20.0 mg/kg/injection, schedule: Q03HX024 (ip), vehicle: clinical formulation): 108 % of control | T/C (dose: 20.0 mg/kg/injection, schedule: Q03HX024 (ip), vehicle: saline): 116 % of control | T/C (dose: 20.0 mg/kg/injection, schedule: Q04DX003 (ip), vehicle: water): 123 % of control | T/C (dose: 30.0 mg/kg/injection, schedule: Q01DX005 (oral), vehicle: saline): 100 % of control | T/C (dose: 30.0 mg/kg/injection, schedule: Q01DX009 (oral), vehicle: saline): 106 % of control | T/C (dose: 30.0 mg/kg/injection, schedule: Q04DX003 (oral), vehicle: saline): 101 % of control | T/C (dose: 40.0 mg/kg/injection, schedule: Q03HX024 (ip), vehicle: clinical formulation): 121 % of control | T/C (dose: 40.0 mg/kg/injection, schedule: Q03HX024 (ip), vehicle: water): 92 % of control | T/C (dose: 45.0 mg/kg/injection, schedule: Q04DX003 (ip), vehicle: water): 114 % of control | T/C (dose: 50.0 mg/kg/injection, schedule: Q01DX001 (sc), vehicle: saline): 120 % of control | T/C (dose: 60.0 mg/kg/injection, schedule: Q01DX005 (oral), vehicle: saline): 111 % of control | T/C (dose: 60.0 mg/kg/injection, schedule: Q04DX003 (oral), vehicle: saline): 106 % of control | T/C (dose: 80.0 mg/kg/injection, schedule: Q01DX001 (ip), vehicle: water): 104 % of control | T/C (dose: 80.0 mg/kg/injection, schedule: Q01DX009 (oral), vehicle: water): 157 % of control | T/C (dose: 80.0 mg/kg/injection, schedule: Q03HX024 (ip), vehicle: clinical formulation): 150 % of control | T/C (dose: 80.0 mg/kg/injection, schedule: Q03HX024 (ip), vehicle: saline): 154 % of control | T/C (dose: 80.0 mg/kg/injection, schedule: Q04DX003 (ip), vehicle: water): 121 % of control | T/C (dose: 80.0 mg/kg/injection, schedule: Q08DX002 (ip), vehicle: saline): 102 % of control | T/C (dose: 100.0 mg/kg/injection, schedule: Q01DX001 (sc), vehicle: saline): 115 % of control | T/C (dose: 120.0 mg/kg/injection, schedule: Q01DX001 (oral), vehicle: saline): 102 % of control | T/C (dose: 120.0 mg/kg/injection, schedule: Q01DX005 (oral), vehicle: saline): 123 % of control | T/C (dose: 120.0 mg/kg/injection, schedule: Q04DX003 (oral), vehicle: saline): 108 % of control
